From PubChem BioAssay AID179 (DTP/NCI, 2004)
Where “and” joins values, the source holds several entries; their conditions need not be identical. Equal entries are not always repeated. Calls of active or inactive are those of the source.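 The calls were made as follows: active = compounds giving half or more protection of infected cells from virus-caused growth loss, again on retest; inactive = the rest.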

Tested on: CEM cells HIV-1 protection, formazan growth assay
Assay: NCI AIDS Antiviral Assay
Conditions: for IC50: measured here: growth of uninfected CEM cells
How it was run: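 Protection of CEM cells against HIV-1 measured as cell growth via soluble formazan read-out, with five concentrations tested on both infected and uninfected cells; failure to protect may reflect toxicity.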

N#C/C(=C\c1cccc2ccccc12)c1ccc(Cl)cc1
EC50: > 200 µM | IC50: 95.5 µM

OCCN1CCN(CC/C=C2\c3ccccc3Sc3ccc(Cl)cc32)CC1
EC50: > 200 µM | IC50: 10.2 µM

O=[P+](O)c1ccsc1
outcome: inactive

CC1(C)OC2COC(=O)CC2O1 (stereo not drawn)
EC50: > 200 µM | IC50: > 200 µM

C/C=C1\C=C(OC)CN(CCc2c[nH]c3ccccc23)C1
EC50: > 158 µM | IC50: 50.1 µM

CCN(CC)CCNC(=O)c1ccccc1NC(=O)C(=O)Nc1ccccc1C(=O)NCCN(CC)CC
EC50: > 6.92 µM | IC50: > 6.92 µM

CO[C@H]1ON=C(c2c(C)cc(C)cc2C)[C@@H]1C1(c2ccccc2)ON=C(c2c(C)cc(C)cc2C)O1 (stereo partly drawn)
EC50: > 200 µM

O=S1(=O)C/C(=C\N2CCOCC2)c2ccccc21
EC50: > 200 µM | IC50: > 200 µM

N#CNC1=NCOCN1
EC50: > 708 µM | IC50: > 708 µM

CCCCC/C(=N\c1nc[nH]c1C(N)=O)OCC
EC50: > 200 µM | IC50: > 200 µM

c1ccc(C(CNCCN2CCCCCC2)C2CCCCC2)cc1 (stereo not drawn)
EC50: > 100 µM | IC50: 11.5 µM

COc1cccc2c(=O)c3ccccc3oc12
EC50: > 200 µM | IC50: > 200 µM

COc1cc2c(cc1OC)C13CC[N+]4(C)CC5CCOC6CCN2C1C6C5CC34 (stereo not drawn)
EC50: > 479 µM | IC50: 66.1 µM

CCCc1[nH]nc(CCC(=O)N(Cc2ccccc2)Cc2ccccc2)c1CC
EC50: > 331 µM | IC50: > 331 µM

CCCCC1(C)C=C/C(=C2/C(=O)O/C(=C\C(=O)O)C2=O)O1 (stereo not drawn)
EC50: > 851 µM | IC50: > 851 µM

O=C(O)c1cc(Cc2cc(Cl)c(O)c(C(=O)O)c2)cc(Cl)c1O
EC50: > 501 µM | IC50: 347 µM and 204 µM

CC(=O)OCCCCCn1cnc(C(N)=O)c1N
EC50: > 200 µM | IC50: > 200 µM

Oc1c(Cl)ccc2cccnc12
EC50: > 20 µM | IC50: 0.676 µM

COc1ccc(/C=C/C(=O)c2c(-c3ccccc3)nn(C)c(=O)c2N2CC2C)cc1 (stereo not drawn)
EC50: > 64.6 µM | IC50: 22.4 µM

CC1=[N+]([O-])C2(CCCC2)N(O)C1(C)C
EC50: > 200 µM | IC50: > 200 µM

O=C(Nc1ccc(-c2ccco2)oc1=O)c1ccccc1
EC50: > 200 µM | IC50: > 200 µM

CC(C)[C@](O)(C(=O)OCC1CCN2CC[C@@H](O)C12)[C@H](C)O (stereo partly drawn)
EC50: > 200 µM | IC50: > 200 µM

CC1(C)CCCCCC(C)(CCCO)C1=O (stereo not drawn)
EC50: > 200 µM | IC50: > 200 µM

Cc1cc(C)nc(SC(F)(F)c2nc3ccccc3o2)n1
outcome: active

O=C1CCC(=O)c2cc(Br)ccc2N1
EC50: > 141 µM | IC50: > 141 µM

O=C(O)C1Cc2c([nH]c3ccccc23)C=N1 (stereo not drawn)
outcome: inactive

O=[N+]([O-])c1ccc(N=Cc2ccc(Cl)cc2)cc1
EC50: > 200 µM | IC50: 9.77 µM

CSc1cc(C(=O)Nc2ccc(C3=NCCN3)cc2)ccc1C(=O)Nc1ccc(C2=NCCN2)cc1
EC50: > 141 µM | IC50: 72.4 µM

CC(=O)OCC1OC(N=[N+]=[N-])C(OC(C)=O)C(OC(C)=O)C1OC1OC(COC(C)=O)C(OC(C)=O)C(OC(C)=O)C1OC(C)=O (stereo not drawn)
EC50: > 53.7 µM | IC50: > 53.7 µM

CC(C)CCCC(C)[C@H]1CC[C@H]2[C@@H]3CC[C@H]4C[C@@H](CCC=C(c5cc(Cl)c(O)c(C(=O)OC(C)(C)C)c5)c5cc(Cl)c(O)c(C(=O)OC(C)(C)C)c5)CC[C@]4(C)[C@H]3CC[C@]12C (stereo partly drawn)
EC50: > 50.1 µM | IC50: > 50.1 µM

COc1ccc(C(=O)C(c2ccc(OC)cc2)C2(O)C(=O)Nc3c(Cl)cc(Cl)cc32)cc1 (stereo not drawn)
EC50: > 39.8 µM | IC50: > 39.8 µM

CC1CC(C)(C)N/C(=C/C(=O)N2Cc3cc4ccccc4nc3C2)O1 (stereo not drawn)
EC50: > 200 µM | IC50: > 200 µM

O=C1Cc2cn[nH]c2-c2ccccc2N1
outcome: inactive

ON1CCc2c([nH]c3ccccc23)C1c1ccc(Cl)cc1 (stereo not drawn)
outcome: inactive

NC(=O)c1cccc(C2OC(COP(=O)(O)O)C(O)C2O)c1 (stereo not drawn)
EC50: > 661 µM | IC50: 3.47 µM

O=C(O)/C(Cl)=C(\Cl)Nc1cccc(C(F)(F)F)c1
outcome: inactive

Cc1nc(-n2[nH]c(C)c(CCO)c2=O)[nH]c(=O)c1CCO
outcome: inactive

CC(C(=O)O)n1[se]c2ccccc2c1=O (stereo not drawn)
EC50: 12.6 µM | IC50: 120 µM

CCOC(=O)c1c(N)sc2c1C(C(=O)OCC)CCC2 (stereo not drawn)
EC50: > 200 µM | IC50: 112 µM

O=C(OC(CC[P+](c1ccccc1)(c1ccccc1)c1ccccc1)(C(=O)c1ccccc1)c1ccccc1)c1ccccc1 (stereo not drawn)
EC50: > 200 µM | IC50: 1.07 µM

Cc1cc2ncn(-c3nc4ccccc4nc3C(C#N)S(C)(=O)=O)c2cc1C (stereo not drawn)
EC50: > 646 µM | IC50: 57.5 µM

CCNC(=O)c1cc(NC(=O)c2ccc(C(=O)Nc3cc(C(=O)NCC)cc(C4=NCCN4)c3)cc2)cc(C2=NCCN2)c1
EC50: > 200 µM | IC50: 87.1 µM

CC12CCC(=O)C[C@H]1CCC(OC=O)C2Br (stereo partly drawn)
outcome: inactive

CCOC(=O)C(NC(=O)C(CCCCNP(=O)(OCC)OCC)NC(=O)C(C)NC(C)=O)C(C)C (stereo not drawn)
EC50: > 200 µM | IC50: > 200 µM

O=[N+]([O-])c1nccn1CCCNc1c2ccccc2nc2ccccc12
outcome: inactive

Fc1cccc2c(SCc3ccc(Cl)cc3Cl)cnnc12
EC50: > 15.5 µM | IC50: > 15.5 µM

C=C(CCCC(C)OC(=O)NC(C)c1cccc2ccccc12)[Si](C)(C)C (stereo not drawn)
EC50: > 18.6 µM | IC50: > 18.6 µM

Nc1cc2ncnn2c(SCC(=O)N/N=C/C(Br)=C\c2ccccc2)n1
EC50: > 200 µM | IC50: 7.94 µM

CC1(C)S(=O)(=O)OCCOS1(=O)=O
EC50: > 200 µM | IC50: 110 µM

O=S(=O)(CCn1c(Sc2ccccc2)c(Sc2ccccc2)c2ccccc21)c1ccccc1
EC50: > 200 µM | IC50: > 200 µM

Cc1cc2nc(-c3ccccc3Cl)[nH]c2cc1C
EC50: > 100 µM | IC50: 32.4 µM

[N-]=[N+]=Nc1c(-c2ccccc2)c(=O)n(-c2ccccc2)c2ccccc12
outcome: inactive

CCCCCCCCCCCCN(O)C(=O)c1ccccc1
EC50: > 17 µM | IC50: > 17 µM

CC(C)(C)N1CC1CNC(=O)C(=O)NCC1CN1C(C)(C)C (stereo not drawn)
EC50: > 200 µM | IC50: 1.35 µM

O=[N+]([O-])c1ccc2cnn(CCO)c2c1
EC50: > 200 µM | IC50: > 200 µM

O=S(Nc1ccccc1)c1ccc(N2CCOCC2)cc1 (stereo not drawn)
EC50: > 200 µM | IC50: 18.2 µM

O=C1NC2OC(CO)C(O)C(O)C2O1 (stereo not drawn)
EC50: > 200 µM | IC50: > 200 µM

O=c1[nH]c(=O)n(C2OC(CO)C(O)C2O)c2ncc(-c3ccc(-c4ccccc4)cc3)nc12 (stereo not drawn)
EC50: > 20 µM | IC50: > 20 µM

N#Cc1cccc(/C=C(/C(=O)c2ccccc2)c2ccccc2)c1
EC50: > 17 µM | IC50: 9.55 µM

CC(=O)c1ccc(OCC(O)CO)cc1 (stereo not drawn)
EC50: > 617 µM | IC50: > 617 µM

COc1ccc2cc1-c1cc(ccc1O)CC1NCCc3cc4c(cc31)Oc1c(c(OC)c(OC)c3c1[C@H](C2)N(C)CC3)O4 (stereo partly drawn)
EC50: > 6.03 µM | IC50: > 6.03 µM

N#CC1(C#N)C(C#N)(C#N)C12CCCC2
EC50: > 20 µM | IC50: 10.5 µM

CO/C(=N\N=C\c1cccc(C(F)(F)F)c1)c1ccncc1
EC50: > 117 µM | IC50: 12.6 µM

COC(=O)C1CCc2c1c(=O)n1c([nH]c3ccccc31)c2C#N (stereo not drawn)
EC50: > 40.7 µM | IC50: > 40.7 µM

CC(/C=C/c1ccccc1)=N/NS(=O)(=O)c1ccc(N)cc1
EC50: > 115 µM | IC50: > 115 µM

CC(=O)Nc1ccc(C(=O)NN2C(=O)CSC2c2ccc([N+](=O)[O-])cc2)cc1 (stereo not drawn)
EC50: > 25.1 µM | IC50: > 25.1 µM

COc1cc(C2c3cc4c(cc3OC(N3CCOCC3)C2C)OCO4)cc(OC)c1OC (stereo not drawn)
EC50: > 200 µM | IC50: 1.86 µM
